Experimental findings from patent publication US10669267B2, “Substituted N-[2-(4-phenoxypiperidin-1-yl)-2-(1,3-thiazol-5-yl)ethyl]benzamide and N-[2-(4-benzyloxypiperidin-1-yl)-2-(1,3-thiazol-5-yl)ethyl]benzamide derivatives P2X7 receptor antagonists” (Axxam S.P.A., priority 2016, dated 2020) are described below.

Usually IC50 stands for the concentration at which inhibition is half-maximal.

Sequence of rat P2X7R (Q64663 whole entry): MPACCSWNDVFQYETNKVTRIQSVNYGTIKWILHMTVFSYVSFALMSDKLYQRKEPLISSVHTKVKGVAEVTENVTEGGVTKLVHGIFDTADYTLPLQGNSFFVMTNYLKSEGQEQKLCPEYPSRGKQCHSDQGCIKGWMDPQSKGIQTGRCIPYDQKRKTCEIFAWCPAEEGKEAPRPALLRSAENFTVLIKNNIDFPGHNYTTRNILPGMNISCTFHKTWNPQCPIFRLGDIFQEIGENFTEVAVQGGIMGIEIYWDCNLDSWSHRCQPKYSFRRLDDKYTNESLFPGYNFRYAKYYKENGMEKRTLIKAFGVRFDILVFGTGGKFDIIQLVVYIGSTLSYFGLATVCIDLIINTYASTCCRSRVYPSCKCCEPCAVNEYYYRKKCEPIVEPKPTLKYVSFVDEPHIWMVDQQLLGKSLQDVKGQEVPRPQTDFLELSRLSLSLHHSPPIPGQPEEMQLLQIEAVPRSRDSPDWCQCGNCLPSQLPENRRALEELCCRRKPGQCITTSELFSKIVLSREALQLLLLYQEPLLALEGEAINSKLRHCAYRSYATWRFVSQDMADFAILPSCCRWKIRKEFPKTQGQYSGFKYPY

This test addresses rat P2X7R (Rattus norvegicus (Rat), UniProt Q64663). The test can be described thus: rat P2X7 Ca2+ influx, Screen Quest Fluo-8 No Wash Calcium Assay Kit (FLIPR TETRA). It counts as cell-based. The note with it: Table 4; HEK-293 cells stably transfected with rat P2X7R, BzATP stimulation; read-out: rP2X7 (IC50; nM). As for the experimental part: Ca^2+ influx was measured in HEK-293 cells stably transfected with the receptor using Screen Quest™ Fluo-8 No Wash Calcium Assay Kit (AAt Bioquest®). Briefly, once inside the cells, the lipophilic blocking groups of Fluo-8 are cleaved by non-specific cell esterases, resulting in a negatively-charged fluorescent-dye that stays inside cells. Its fluorescence increases upon binding to calcium. When HEK-293/P2X7 cells were stimulated with BzATP, Ca^2+ entered the cells and the fluorescence of Fluo-8 NW increaseed.
To routinely test the compounds, HEK-293 cells stably transfected with rat P2X7R were seeded overnight in growth medium at 10000, 15000 or 20000 cells/well in 384-well plate, according to the level of response after thawing. 24 hours later, the medium was removed and the cells were pre-loaded at RT for 1 hour with 20 μL/w of Fluo-8 NW prepared in Tyrode 0.3 mM Ca^2+/Mg^2+-free.
Compounds were tested at […] according to the following method: • first injection at […] of 10 μL of 3× test compound (in Tyrode's buffer 0.3 mM Ca^2+/Mg^2+-free+DMSO 0.5% final concentration) • 5′ incubation • second injection at […] of 15 µL of 3× BzATP at ˜ECK) (in Tyrode's buffer 0.3 mM Ca^2+/Mg^2+-free+BSA 0.0003% final concentration) • Fluorescence recording for 3′
Between one plate and the following, tips were extensively washed with water, then with 100% DMSO and finally with water to avoid carry-over inside the tips.
The effect of the test compounds was measured as percent inhibition vs a reference antagonist and IC50 values were calculated accordingly.
Consider `Cc1ncsc1C(CNC(=O)c1c(F)cccc1Cl)N1CCC(OCc2ccc(Cl)cc2)CC1` (stereo not shown) [Compound 2, 2-chloro-N-(2-{4-[(4-chlorophenyl)methoxy]piperidin-1-yl}-2-(4-methyl-1,3-thiazol-5-yl)ethyl)-6-fluorobenzamide], for which the IC50 is 971 nM. In the case of `Cc1ncsc1C(CNC(=O)c1c(F)cccc1Cl)N1CCC(OCc2ccc(F)c(F)c2)CC1` (stereo not shown) [Compound 6, 2-chloro-N-(2-{4-[(3,4-difluorophenyl)methoxy]piperidin-1-yl}-2-(4-methyl-1,3-thiazol-5-yl)ethyl)-6-fluorobenzamide], the half-inhibitory concentration (IC50) came to 1160 nM. Then `Cc1ncsc1C(CNC(=O)c1c(F)cccc1Cl)N1CCC(Oc2ccc(Cl)cc2)CC1` (stereo not shown) [Compound 8, 2-chloro-N-{2-[4-(4-chlorophenoxy)piperidin-1-yl]-2-(4-methyl-1,3-thiazol-5-yl)ethyl}-6-fluorobenzamide], with 1310 nM; and `Cc1ncsc1C(CNC(=O)c1cccc2ncccc12)N1CCC(OCc2ccc(Cl)cc2)CC1` (stereo not shown) [Compound 14, N-(2-{4-[(4-chlorophenyl)methoxy]piperidin-1-yl}-2-(4-methyl-1,3-thiazol-5-yl)ethyl)quinoline-5-carboxamide], with 1120 nM; and `Cc1ncsc1C(CNC(=O)c1cccc2ncccc12)N1CCC(OCc2ccccc2F)CC1` (stereo not shown) [Compound 16, N-(2-{4-[(2-fluorophenyl)methoxy]piperidin-1-yl}-2-(4-methyl-1,3-thiazol-5-yl)ethyl)quinoline-5-carboxamide], with 762 nM. As to `Cc1ncsc1C(CNC(=O)c1cccc2ncccc12)N1CCC(Oc2ccc(Cl)cc2)CC1` (stereo not shown) [Compound 20, N-{2-[4-(4-chlorophenoxy)piperidin-1-yl]-2-(4-methyl-1,3-thiazol-5-yl)ethyl}quinoline-5-carboxamide], the IC50 came out at 808 nM. For `Cc1ncsc1C(CNC(=O)c1cccc2ncccc12)N1CCC(Oc2cc(F)cc(F)c2)CC1` (stereo not shown) [Compound 23, N-{2-[4-(3,5-difluorophenoxy)piperidin-1-yl]-2-(4-methyl-1,3-thiazol-5-yl)ethyl}quinoline-5-carboxamide], the IC50 is 631 nM. On to `O=C(NCC(c1scnc1C(F)F)N1CCC(OCc2ccccc2F)CC1)c1c(F)cccc1Cl` (stereo not shown) [Compound 25, 2-chloro-N-{2-[4-(difluoromethyl)-1,3-thiazol-5-yl]-2-{4-[(2-fluorophenyl)methoxy]piperidin-1-yl}ethyl}-6-fluorobenzamide], for which the IC50 came to 252 nM. On to `O=C(NCC(c1scnc1C(F)F)N1CCC(OCc2cc(F)cc(F)c2)CC1)c1c(F)cccc1Cl` (stereo not shown) [Compound 26, 2-chloro-N-{2-[4-(difluoromethyl)-1,3-thiazol-5-yl]-2-{4-[(3,5-difluorophenyl)methoxy]piperidin-1-yl}ethyl}-6-fluorobenzamide], for which the concentration for half-maximal inhibition (IC50) came to 578 nM. As to `O=C(NCC(c1scnc1C(F)F)N1CCC(OCc2ccc(F)c(F)c2)CC1)c1c(F)cccc1Cl` (stereo not shown) [Compound 27, 2-chloro-N-{2[4-(difluoromethyl)-1,3-thiazol-5-yl]-2-{4-[(3,4-difluorophenyl)methoxy]piperidin-1-yl}ethyl}-6-fluorobenzamide], the IC50 was 1210 nM. `O=C(NCC(c1scnc1C(F)F)N1CCC(Oc2ccc(Cl)cc2)CC1)c1c(F)cccc1Cl` (stereo not shown) [Compound 28, 2-chloro-N-{2-[4-(4-chlorophenoxy)piperidin-1-yl]-2-[4-(difluoromethyl)-1,3-thiazol-5-yl]ethyl}-6-fluorobenzamide]: the 50% inhibitory concentration (IC50) came to 2020 nM. Then `O=C(NCC(c1scnc1C(F)F)N1CCC(Oc2cc(F)cc(F)c2)CC1)c1c(F)cccc1Cl` (stereo not shown) [Compound 31, 2-chloro-N-{2-[4-(difluoromethyl)-1,3-thiazol-5-yl]-2-[4-(3,5-difluorophenoxy)piperidin-1-yl]ethyl}-6-fluorobenzamide], with 458 nM.

As for `O=C(NCC(c1scnc1C(F)F)N1CCC(OCc2ccccc2F)CC1)c1cccc2ncccc12` (stereo not shown) [Compound 32, N-{2-[4-(difluoromethyl)-1,3-thiazol-5-yl]-2-{4-[(2-fluorophenyl)methoxy]piperidin-1-yl}ethyl}quinoline-5-carboxamide], the half-maximal inhibitory concentration (IC50) amounted to 251 nM.
